# Source: patent publication US20260285850A1, “SUBSTITUTED OXAZOLIDINONES AND IMIDAZOLINONES AS HERBICIDES” (FMC CORPORATION, priority 2023, published 2026)
# Experiments:
# Type in all cases: in vivo
# [1] = tested on: barnyardgrass (Echinochloa crus-galli); assay: Test A preemergence soil spray, visual injury rating 0-100; conditions: 10 days
# Procedure, shortened: (§1)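 Loam-sand pots got test material in surfactant-containing solvent, either as a directed soil spray before emergence or on plants at the one- to two-leaf stage. Visual injury (0-100) was read after ten greenhouse days.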
# [2] = tested on: blackgrass (Alopecurus myosuroides); assay: as above; conditions: 10 days
# Procedure, shortened: as §1
# corn (Zea mays) [3] = assay: as above; conditions: 10 days
# Procedure, shortened: as §1
# [4] = tested on: green foxtail (Setaria viridis); assay: as above; conditions: 10 days
# Procedure, shortened: as §1
# kochia (Bassia scoparia) [5] = assay: as above; conditions: 10 days
# Procedure, shortened: as §1
# [6] = tested on: oat, wild (wild oat, Avena fatua); assay: as above; conditions: 10 days
# Procedure, shortened: as §1
# [7] = tested on: palmer (palmer amaranth, palmer pigweed, Amaranthus palmeri); assay: as above; conditions: 10 days
# Procedure, shortened: as §1
# [8] = tested on: ragweed (common ragweed, Ambrosia artemisiifolia); assay: as above; conditions: 10 days
# Procedure, shortened: as §1
# [9] = tested on: ryegrass, Italian (italian ryegrass, Lolium multiflorum); assay: as above; conditions: 10 days
# Procedure, shortened: as §1
# soybean (Glycine max) [10] = assay: as above; conditions: 10 days
# Procedure, shortened: as §1
# [11] = tested on: wheat (Triticum aestivum); assay: as above; conditions: 10 days
# Procedure, shortened: as §1
# [12] = tested on: barnyardgrass (Echinochloa crus-galli); assay: Test A postemergence application, visual injury rating 0-100
# Procedure, shortened: as §1
# [13] = tested on: blackgrass (Alopecurus myosuroides); assay: as above
# Procedure, shortened: as §1
# corn (Zea mays) [14] = assay: as above
# Procedure, shortened: as §1
# [15] = tested on: galium (catchweed bedstraw, Galium aparine); assay: as above
# Procedure, shortened: as §1
# [16] = tested on: green foxtail (Setaria viridis); assay: as above
# Procedure, shortened: as §1
# [17] = tested on: horseweed (Erigeron canadensis); assay: as above
# Procedure, shortened: as §1
# kochia (Bassia scoparia) [18] = assay: as above
# Procedure, shortened: as §1
# [19] = tested on: oat, wild (wild oat, Avena fatua); assay: as above
# Procedure, shortened: as §1
# [20] = tested on: palmer (palmer amaranth, palmer pigweed, Amaranthus palmeri); assay: as above
# Procedure, shortened: as §1
# [21] = tested on: ragweed (common ragweed, Ambrosia artemisiifolia); assay: as above
# Procedure, shortened: as §1
# [22] = tested on: ryegrass, Italian (italian ryegrass, Lolium multiflorum); assay: as above
# Procedure, shortened: as §1
# soybean (Glycine max) [23] = assay: as above
# Procedure, shortened: as §1
# [24] = tested on: wheat (Triticum aestivum); assay: as above
# Procedure, shortened: as §1
# [25] = tested on: barnyardgrass (Echinochloa crusgalli); assay: Test B flooded paddy test, visual plant response rating 0-100; conditions: 250 g ai/ha, Flood, applied to paddy water, evaluated after 13 days
# Procedure, shortened: (§2)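 Greenhouse, 13 d. Seedlings at 2-leaf stage, pots flooded to 3 cm, compound delivered into floodwater, water level held constant. Evaluated visually relative to controls.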
# [26] = tested on: ducksalad (Heteranthera limosa); assay: as above; conditions: 250 g ai/ha, Flood, applied to paddy water, evaluated after 13 days
# Procedure, shortened: as §2
# rice (Oryza sativa) = assay: as above; conditions: 250 g ai/ha, Flood, applied to paddy water, evaluated after 13 days
# Procedure, shortened: as §2
# [27] = tested on: sedge, umbrella (small-flower umbrella sedge, Cyperus difformis); assay: as above; conditions: 250 g ai/ha, Flood, applied to paddy water, evaluated after 13 days
# Procedure, shortened: as §2
# [28] = 62 g ai/ha, 0 = no effect, 100 = complete control
# [29] = 62 g ai/ha, postemergence, 10 days, 0 = no effect, 100 = complete control
# [30] = Postemergence, 16 g ai/ha, greenhouse 10 days, 0 no effect, 100 complete control
smiles,measurement,setting,value
COC(=O)C1CC(NC(=O)C2(C)CN(c3cc(F)cc(F)c3)C(=O)O2)C1 (stereo not shown) [Compound 117],Barnyardgrass plant response rating,"[1]; 16 g ai/ha, 0 to 100 scale",0
same,Barnyardgrass plant response rating (0-100),[1]; [28],10
same,Blackgrass plant response rating,"[2]; 16 g ai/ha, 0 to 100 scale",30
same,Blackgrass plant response rating (0-100),[2]; [28],60
same,Corn plant response rating,"corn (Zea mays) [3]; 16 g ai/ha, 0 to 100 scale",0
same,Corn plant response rating (0-100),corn (Zea mays) [3]; [28],0
same,"Foxtail, Green plant response rating","[4]; 16 g ai/ha, 0 to 100 scale",0
same,"Foxtail, Green plant response rating (0-100)",[4]; [28],80
same,Kochia plant response rating,"kochia (Bassia scoparia) [5]; 16 g ai/ha, 0 to 100 scale",0
same,Kochia plant response rating (0-100),kochia (Bassia scoparia) [5]; [28],0
same,"Oat, Wild plant response rating","[6]; 16 g ai/ha, 0 to 100 scale",40
same,"Oat, Wild plant response rating (0-100)",[6]; [28],90
same,"Pigweed, Palmer plant response rating","[7]; 16 g ai/ha, 0 to 100 scale",0
same,"Pigweed, Palmer plant response rating (0-100)",[7]; [28],10
same,Ragweed plant response rating,"[8]; 16 g ai/ha, 0 to 100 scale",0
same,Ragweed plant response rating (0-100),[8]; [28],0
same,"Ryegrass, Italian plant response rating","[9]; 16 g ai/ha, 0 to 100 scale",0
same,"Ryegrass, Italian plant response rating (0-100)",[9]; [28],70
same,Soybean plant response rating,"soybean (Glycine max) [10]; 16 g ai/ha, 0 to 100 scale",0
same,Soybean plant response rating (0-100),soybean (Glycine max) [10]; [28],0
same,Wheat plant response rating,"[11]; 16 g ai/ha, 0 to 100 scale",0
same,Wheat plant response rating (0-100),[11]; [28],20
same,Barnyardgrass plant response rating (0-100),[12]; [29],70
same,Barnyardgrass plant response rating (0 to 100 scale),[12]; [30],0
same,Blackgrass plant response rating (0-100),[13]; [29],90
same,Blackgrass plant response rating (0 to 100 scale),[13]; [30],70
same,Corn plant response rating (0-100),corn (Zea mays) [14]; [29],100
same,Corn plant response rating (0 to 100 scale),corn (Zea mays) [14]; [30],0
same,Galium plant response rating (0-100),[15]; [29],60
same,Galium plant response rating (0 to 100 scale),[15]; [30],50
same,"Foxtail, Green plant response rating (0-100)",[16]; [29],90
same,"Foxtail, Green plant response rating (0 to 100 scale)",[16]; [30],30
same,Horseweed plant response rating (0-100),[17]; [29],0
same,Horseweed plant response rating (0 to 100 scale),[17]; [30],0
same,Kochia plant response rating (0-100),kochia (Bassia scoparia) [18]; [29],0
same,Kochia plant response rating (0 to 100 scale),kochia (Bassia scoparia) [18]; [30],0
same,"Oat, Wild plant response rating (0-100)",[19]; [29],80
same,"Oat, Wild plant response rating (0 to 100 scale)",[19]; [30],10
same,"Pigweed, Palmer plant response rating (0-100)",[20]; [29],10
same,"Pigweed, Palmer plant response rating (0 to 100 scale)",[20]; [30],0
same,Ragweed plant response rating (0-100),[21]; [29],40
same,Ragweed plant response rating (0 to 100 scale),[21]; [30],0
same,"Ryegrass, Italian plant response rating (0-100)",[22]; [29],80
same,"Ryegrass, Italian plant response rating (0 to 100 scale)",[22]; [30],60
same,Soybean plant response rating (0-100),soybean (Glycine max) [23]; [29],60
same,Soybean plant response rating (0 to 100 scale),soybean (Glycine max) [23]; [30],40
same,Wheat plant response rating (0-100),[24]; [29],90
same,Wheat plant response rating (0 to 100 scale),[24]; [30],50
same,"Plant response rating, Barnyardgrass (0 to 100 scale, 0 is no effect and 100 is complete control)",[25],0
same,"Plant response rating, Ducksalad (0 to 100 scale, 0 is no effect and 100 is complete control)",[26],0
same,"Plant response rating, Rice (0 to 100 scale, 0 is no effect and 100 is complete control)",rice (Oryza sativa),0
same,"Plant response rating, Sedge, Umbrella (0 to 100 scale, 0 is no effect and 100 is complete control)",[27],0
